Assay results published in PubChem BioAssay (NCI).
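All cell lines were grown in 96-well plates and treated with compound for 48 hours. GI50 marks 50% less growth. TGI denotes the concentration required for complete inhibition of growth.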

What was measured:
Test in all cases: inhibition of tumour cell growth, NCI panel, 48 h
K-562 leukemia = test system: K-562 leukemia
HS 578T breast = test system: HS 578T breast
HT29 colon = test system: HT29 colon
SN12C renal = test system: SN12C renal
NCI-H460 lung = test system: NCI-H460 lung
SF-295 CNS = test system: SF-295 CNS
IGROV1 ovarian = test system: IGROV1 ovarian
PC-3 prostate = test system: PC-3 prostate
MALME-3M melanoma = test system: MALME-3M melanoma
U251 CNS = test system: U251 CNS

| Structure (SMILES) | GI50 (K-562 leukemia) | TGI (K-562 leukemia) | GI50 (HS 578T breast) | TGI (HS 578T breast) | GI50 (HT29 colon) | TGI (HT29 colon) | GI50 (SN12C renal) | TGI (SN12C renal) | GI50 (NCI-H460 lung) | TGI (NCI-H460 lung) | GI50 (SF-295 CNS) | TGI (SF-295 CNS) | GI50 (IGROV1 ovarian) | TGI (IGROV1 ovarian) | GI50 (PC-3 prostate) | TGI (PC-3 prostate) | GI50 (MALME-3M melanoma) | TGI (MALME-3M melanoma) | GI50 (U251 CNS) | TGI (U251 CNS) |
| --- | --- | --- | --- | --- | --- | --- | --- | --- | --- | --- | --- | --- | --- | --- | --- | --- | --- | --- | --- | --- |
| O=C(c1ccccc1)c1c(NCC(O)CN2CCOCC2)n(Cc2ccccc2)c(=O)n(Cc2ccccc2)c1=O (stereo not given) | 42.2 µM | > 100 µM | 55 µM | > 100 µM | 26.4 µM | > 62.9 µM | 46 µM | > 100 µM | 42.9 µM | > 100 µM | 36.2 µM | > 100 µM | 38.5 µM | > 100 µM | 39.4 µM | > 100 µM | 48.8 µM | > 100 µM | 29.2 µM | > 100 µM |
| Cc1nc(Nc2cccnc2)sc1C(=O)/C=C/c1ccc(Cl)cc1 | 2.62 µM | > 100 µM | 4.11 µM | > 100 µM | 2.85 µM | 9.43 µM | 2.91 µM | 9.13 µM | 3.5 µM | 13.8 µM | 2.79 µM | 19.1 µM | 3.29 µM | > 100 µM | 3.27 µM | 12 µM | 3.3 µM | 23.6 µM | 1.81 µM | 3.72 µM |
| CCN(c1cc(-c2ccc(CN3CCOCC3)cc2)cc(C(=O)NCc2c(C)cc(C)[nH]c2=O)c1C)C1CCOCC1 | 32.6 µM | > 100 µM | 22.2 µM | > 71.2 µM | 15.7 µM | 35.6 µM | 26.9 µM | > 64.5 µM | 25.5 µM | > 66.8 µM | 26.2 µM | 71.3 µM | 30.3 µM | > 63 µM | 32 µM | > 100 µM | 14.4 µM | 28.9 µM | 26 µM | > 81 µM |
| C1CC[N-]CC1.CC(=N\O)/C(C)=N/O.CC(=N\O)/C(C)=N/O.OC1[CH-]CCCC1.[Co+2] | 33.4 µM | > 100 µM | 22.8 µM | 63 µM | 72.5 µM | > 100 µM | 53.7 µM | > 100 µM | 30.8 µM | > 100 µM | > 100 µM | > 100 µM | 44.9 µM | > 100 µM | 36.6 µM | > 100 µM | 18 µM | 40.8 µM | 31 µM | > 100 µM |
| COC(=O)COc1ccc(/C=C2/N=C(c3ccccc3)N(c3c(C)n(C)n(-c4ccccc4)c3=O)C2=O)cc1 | 30.4 µM | > 100 µM | 24.7 µM | 60.5 µM | 18.3 µM | 35.7 µM | 22.5 µM | 49 µM | 26 µM | > 100 µM | 33.5 µM | > 100 µM | 23.6 µM | 42.3 µM | 19.6 µM | 37.9 µM | 19.7 µM | 40.6 µM | 67.6 µM | > 100 µM |
| CN(C)CCSS(=O)(=O)O |  | > 100 µM |  | > 100 µM |  | > 100 µM |  | > 100 µM |  | 34.7 µM |  | 94.4 µM |  | > 100 µM |  | > 100 µM |  | > 100 µM |  | > 100 µM |
| COc1cc2c(cc1OC)C(=O)/C(=C/c1cc(-c3ccc4c(c3)OCO4)n[nH]1)C2 | 1.59 µM | > 100 µM | 2.61 µM | 8.08 µM | 1.45 µM | 3.09 µM | 1.59 µM | 2.99 µM | 1.68 µM | 3.79 µM | 1.64 µM | 3.26 µM | 1.89 µM | 4.58 µM | 1.29 µM | 2.92 µM | 1.74 µM | 3.6 µM | 1.09 µM | 2.31 µM |
| O=C1CC(c2[nH]nc3ccccc23)C(=O)N1c1ccccc1 (stereo not given) |  | > 80.1 µM |  | > 100 µM |  | > 100 µM |  | > 100 µM |  | > 100 µM |  | > 100 µM |  | > 100 µM |  | > 100 µM |  | > 100 µM |  | > 100 µM |
| Cc1c2cc(Cl)c3ccccc3c2c[n+]2ccccc12 | 2.98 µM | 27.2 µM | 1.12 µM | 11.9 µM | 14 µM | 43.1 µM | 0.388 µM | 3.52 µM | 4.12 µM | 16.9 µM | 0.813 µM | 6.58 µM | 9.18 µM | 60.3 µM | 2.81 µM | 20.1 µM | 0.378 µM | 2.8 µM | 0.468 µM | 3.61 µM |
| C#Cc1nc2ccccc2c(=O)[nH]1 | 0.544 µM | 20.4 µM | 1.69 µM | 7.12 µM | 0.428 µM | 1.64 µM | 0.331 µM | 1.26 µM | 1.79 µM | 7.66 µM | 3.72 µM | 20.2 µM | 0.585 µM | 1.7 µM | 0.674 µM | 2.54 µM | 1.23 µM | 3.04 µM | 1.66 µM | 4.28 µM |
| c1ccc(-c2nc(N3CCOCC3)c3c4c(sc3n2)CCCCCC4)nc1 | 3.47 µM | 23.7 µM | 3.37 µM | 42.3 µM | 6.05 µM | 22.7 µM | 5 µM | 29.4 µM | 3.68 µM | 16 µM | 3.39 µM | 15.8 µM | 3.16 µM | 9.95 µM | 2.69 µM | 11.8 µM | 3.32 µM | 14.9 µM | 4.38 µM | 17 µM |
